Experimental data published in patent US3992539A, “S-triazolo-[3,4-a]isoquinolines in treating inflammatory disorders” (Mallinckrodt, Inc., priority 1973, dated 1976).
Structures can show the parent of a compound that is named as a salt. Where two headings read alike, the source gives them in different places.

Assays:
[1] = tested on: carrageenin-induced pedal edema; assay: inhibition of carrageenin-induced pedal edema in rats; type: in vivo, rats (male Wistar); conditions: Rattus norvegicus
Method: The anti-inflammatory activity of a number of representative compounds of the invention was determined by measuring inhibition of carrageenin-induced pedal edema in rats. The procedure used was a modification of the method of Winter et al., Proc. Soc. Exptl. […] The device used for measurement of the paw volume was an adaptation of the water displacement procedure described by Adamkiewicz et al., Can. J. Biochem. Physiol. […] The compounds were studied for their effectiveness in inhibiting the edema caused by the intraplantar injection of 0.05 ml. of a sterile 1.0% solution of carrageenin. […] The compounds were administered orally one hour prior to the injection of the phlogistic substance (carrageenin) into the left hind paw of the rats. At peak swelling time (3 hours), the volume of edema was calculated by differential paw volumes.

gastric secretion = assay: anti-secretory activity, pylorus-ligated fasting rats (Shay rat procedure); type: in vivo; conditions: for Anti-Secretory Activity (% Reduction of gastric secretion, ml./100 gm.): 50 mg./kg., fasting rats, 4 hours after pylorus ligation, subcutaneous (footnote), intraperitoneal; for anti-secretory activity rather than ulcerogenic properties (in words): rat, in vivo
Method: The anti-secretory properties of certain compounds of the invention was determined using the following procedure. The stomachs of fasting rats were ligated at the pylorus (Shay rat procedure) immediately followed by an intraperitoneal injection of 50 mg./kg. of each compound tested. Four hours later the animals were sacrificed, the stomachs removed and the total volume of fluid was measured.
*% Reduction of gastric secretion (ml./100 gm.) after subcutaneous
administration to fasting rats at 50 mg./kg.

[2] = U.S. Pat. No. 3,354,164; cited from earlier work
[3] = oral, one hour before carrageenin, edema at 3 hours, dose which reduced edema formation by 25% or more in 50% of the animals, read-out: Anti-Inflammatory Activity (ED50)
[4] = po, 3 h, typical ED50 values from the same test, read-out: Anti-Inflammatory Activity (ED50), known antiinflammatory agents
[5] = po, 3 h, read-out: Anti-Inflammatory Activity (ED50), known antiinflammatory agents

Row | Structure (SMILES) | ED50 [1, 3] [mg/kg] | also measured
1 | CCN(CC)CCNc1nnc2c3ccccc3ccn12 [3-(N,N-diethylaminoethylamino)-s-triazolo-[3,4-a]-isoquinoline] | 172 | Anti-Secretory Activity (% Reduction of gastric secretion, ml./100 gm.) (gastric secretion): 49%; anti-secretory activity rather than ulcerogenic properties (in words) (gastric secretion): exhibit anti-secretory activity rather than the ulcerogenic properties
2 | CN1CCN(c2nnc3c4ccccc4c(Cl)cn23)CC1 [3-(N-methylpiperazino)-6-chloro-s-triazolo-[3,4-a]-isoquinoline] | > 60 | –
3 | CC(=O)OCc1nnc2c3ccccc3ccn12 [3-Acetoxymethyl-s-triazolo-[3,4-a]-isoquinoline] | ~100 | –
4 | COC(=O)c1cn2c(C(F)(F)F)nnc2c2ccccc12 [3-Trifluoromethyl-6-carbomethoxy-s-triazolo-[3,4-a]-isoquinoline] | – | Anti-Secretory Activity (% Reduction of gastric secretion, ml./100 gm.) (gastric secretion): 6.4%; anti-secretory activity rather than ulcerogenic properties (in words) (gastric secretion): exhibit anti-secretory activity rather than the ulcerogenic properties
5 | COc1ccc2ccn3c(C)nnc3c2c1 [3-methyl-9-methoxy-s-triazolo-[3,4-a]-isoquinoline] | 115 | –
6 | COc1ccc2ccn3c(C(F)(F)F)nnc3c2c1 [3-Trifluoromethyl-9-methoxy-s-triazolo-[3,4-a]-isoquinoline] | 39 | –
7 | Cl.Cl.Clc1cccc2c1ccn1c(CN3CCOCC3)nnc21 [7-Chloro-3-morpholinomethyl-s-triazolo-[3,4-a]-isoquinoline (Dihydrochloride)] | ~160 | –
8 | c1ccc2c(c1)ccn1cnnc21 [s-triazolo-[3,4-a]-isoquinoline] | – | coronary vasodilator activity (in words) [2]: coronary vasodilators
9 | COc1ccc2c(c1)-c1nnc(C(F)(F)F)n1CC2.Cl [3-Trifluoromethyl-5,6-dihydro-9-methoxy-s-triazolo-[3,4-a]-isoquinoline Hydrochloride] | 38 | –
10 | O=C(O)c1cn2c(C(F)(F)F)nnc2c2ccccc12 [3-Trifluoromethyl-6-carboxy-s-triazolo-[3,4-a]-isoquinoline,Potassium Salt] | > 160 | –
11 | CC(=O)OCC(=O)[C@@]1(O)CC[C@H]2[C@@H]3CCC4=CC(=O)CC[C@]4(C)[C@H]3[C@@H](O)C[C@@]21C [Hydrocortisone Acetate, reference compound] | – | ED50 [1, 4]: 26 mg/kg
12 | CC(=O)Oc1ccccc1C(=O)O [Aspirin, reference compound] | – | ED50 [1, 5]: 224 mg/kg
13 | COc1ccc2c(ccn3c(C)nnc23)c1 [3-Methyl-8-methoxy-s-triazolo-[3,4-a]-isoquinoline] | 135 | –
14 | CC(C)Cc1nnc2c3ccccc3ccn12 [3-isobutyl-s-triazolo-[3,4-a]-isoquinoline] | 130 | Anti-Secretory Activity (% Reduction of gastric secretion, ml./100 gm.) (gastric secretion): 16%; anti-secretory activity rather than ulcerogenic properties (in words) (gastric secretion): exhibit anti-secretory activity rather than the ulcerogenic properties
15 | c1cn2cnnc2c2cc3c(cc12)OCO3 [8,9-Methylenedioxy-s-triazolo-[3,4-a]-isoquinoline] | ~24 | Anti-Secretory Activity (% Reduction of gastric secretion, ml./100 gm.) (gastric secretion): 29.5%; anti-secretory activity rather than ulcerogenic properties (in words) (gastric secretion): exhibit anti-secretory activity rather than the ulcerogenic properties
16 | COc1ccc2c(c1)c(CC(=O)O)c(C)n2C(=O)c1ccc(Cl)cc1 [Indomethacin, reference compound] | – | ED50 [1, 5]: 2.4 mg/kg
17 | FC(F)(F)c1nnc2c3cc(Cl)ccc3ccn12 [3-Trifluoromethyl-9-chloro-s-triazolo-[3,4-a]-isoquinoline] | ~160 | –
18 | Cc1ccc2ccn3c(C(F)(F)F)nnc3c2c1 [3-Trifluoromethyl-9-methyl-s-triazolo-[3,4-a]-isoquinoline] | ~160 | Anti-Secretory Activity (% Reduction of gastric secretion, ml./100 gm.) (gastric secretion): 22%; anti-secretory activity rather than ulcerogenic properties (in words) (gastric secretion): exhibit anti-secretory activity rather than the ulcerogenic properties
19 | Cc1nnc2c3cccc(Cl)c3ccn12.Cl [3-methyl-7-chloro-s-triazolo-[3,4-a]-isoquinoline hydrochloride] | > 30 | –
20 | FC(F)(F)c1nnc2c3cc4c(cc3ccn12)OCO4 [3-Trifluoromethyl-8,9-methylenedioxy-s-triazolo-[3,4-a]-isoquinoline] | 80 | –
21 | Br.Cc1nnc2c3cccc(C#N)c3ccn12 [3-methyl-7-cyano-s-triazolo-[3,4-a]-isoquinoline hydrobromide] | < 100 | –
22 | C[C@@H]1C[C@H]2[C@@H]3CCC4=CC(=O)C=C[C@]4(C)[C@@]3(F)[C@@H](O)C[C@]2(C)[C@@]1(O)C(=O)CO [Dexamethasone, reference compound] | – | ED50 [1, 5]: 0.18 mg/kg
23 | CCCCC1C(=O)N(c2ccccc2)N(c2ccccc2)C1=O [Phenylbutazone, reference compound] | – | ED50 [1, 4]: 30 mg/kg
24 | Cl.c1c2c(cc3c1OCO3)-c1nncn1CC2 [5,6-Dihydro-8,9-methylenedioxy-s-triazolo-[3,4-a]-isoquinoline, Hydrochloride] | ~160 | –
